From ChEMBL document CHEMBL4507305, “Data for DCP probe TP-024” (2021)

Legend:
[1] = target: Rho-associated protein kinase 1 (Homo sapiens) (UniProt Q13464); conditions: Compound concentration 1000.0 nM
[2] = target: Dual specificity protein kinase CLK3 (Homo sapiens) (UniProt P49761); conditions: Compound concentration 1000.0 nM
[3] = target: Mitogen-activated protein kinase kinase kinase 12 (Homo sapiens) (UniProt Q12852); conditions: Compound concentration 1000.0 nM
[4] = target: Casein kinase I isoform gamma-2 (Homo sapiens) (UniProt P78368); conditions: Compound concentration 1000.0 nM
[5] = target: Inhibitor of nuclear factor kappa-B kinase subunit epsilon (Homo sapiens) (UniProt Q14164); conditions: Compound concentration 1000.0 nM
[6] = target: Proto-oncogene tyrosine-protein kinase receptor Ret (Homo sapiens) (UniProt P07949); conditions: Compound concentration 1000.0 nM
[7] = target: 3-phosphoinositide-dependent protein kinase 1 (Homo sapiens) (UniProt O15530); conditions: Compound concentration 1000.0 nM
[8] = tested on: Epidermal growth factor receptor (Homo sapiens), P00533 [UNDEFINED MUTATION]; conditions: Compound concentration 1000.0 nM
[9] = target: Muscarinic acetylcholine receptor M2 (Homo sapiens) (UniProt P08172); conditions: Compound concentration 10.0 uM
[10] = target: Aurora kinase B (Homo sapiens) (UniProt Q96GD4); conditions: Compound concentration 1000.0 nM
[11] = target: Bone morphogenetic protein receptor type-1B (Homo sapiens) (UniProt O00238); conditions: Compound concentration 1000.0 nM
[12] = target: Cyclin-dependent kinase 2 (Homo sapiens) (UniProt P24941); conditions: Compound concentration 1000.0 nM
[13] = target: Dual specificity protein kinase CLK1 (Homo sapiens) (UniProt P49759); conditions: Compound concentration 1000.0 nM
[14] = tested on: Mast/stem cell growth factor receptor Kit (Homo sapiens), P10721 [L576P]; conditions: Compound concentration 1000.0 nM
[15] = tested on: Tyrosine-protein kinase ABL1 (Homo sapiens), P00519 [F317L]; conditions: Compound concentration 1000.0 nM
[16] = target: Mitogen-activated protein kinase kinase kinase 9 (Homo sapiens) (UniProt P80192); conditions: Compound concentration 1000.0 nM
[17] = target: Tyrosine-protein kinase ZAP-70 (Homo sapiens) (UniProt P43403); conditions: Compound concentration 1000.0 nM
[18] = target: Dual specificity protein kinase CLK2 (Homo sapiens) (UniProt P49760); conditions: Compound concentration 1000.0 nM
[19] = tested on: Receptor-type tyrosine-protein kinase FLT3 (Homo sapiens), P36888 [N841I]; conditions: Compound concentration 1000.0 nM
[20] = target: Dual specificity mitogen-activated protein kinase kinase 5 (Homo sapiens) (UniProt Q13163); conditions: Compound concentration 1000.0 nM
[21] = target: Serine/threonine-protein kinase PLK2 (Homo sapiens) (UniProt Q9NYY3); conditions: Compound concentration 1000.0 nM
[22] = target: Testis-specific serine/threonine-protein kinase 3 (Homo sapiens) (UniProt Q96PN8); conditions: Compound concentration 1000.0 nM
[23] = target: Serine/threonine-protein kinase WNK4 (Homo sapiens) (UniProt Q96J92); conditions: Compound concentration 1000.0 nM
[24] = target: Tyrosine-protein kinase receptor TYRO3 (Homo sapiens) (UniProt Q06418); conditions: Compound concentration 1000.0 nM
[25] = target: Serine/threonine-protein kinase PAK 1 (Homo sapiens) (UniProt Q13153); conditions: Compound concentration 1000.0 nM
[26] = target: Citron Rho-interacting kinase (Homo sapiens) (UniProt O14578); conditions: Compound concentration 1000.0 nM
[27] = target: Serine/threonine-protein kinase PAK 2 (Homo sapiens) (UniProt Q13177); conditions: Compound concentration 1000.0 nM
[28] = target: Proto-oncogene tyrosine-protein kinase ROS (Homo sapiens) (UniProt P08922); conditions: Compound concentration 1000.0 nM
[29] = target: Serine/threonine-protein kinase TAO2 (Homo sapiens) (UniProt Q9UL54); conditions: Compound concentration 1000.0 nM
[30] = target: Myosin light chain kinase family member 4 (Homo sapiens) (UniProt Q86YV6); conditions: Compound concentration 1000.0 nM
[31] = target: Mitogen-activated protein kinase kinase kinase 14 (Homo sapiens) (UniProt Q99558); conditions: Compound concentration 1000.0 nM
[32] = target: Tyrosine-protein kinase Tec (Homo sapiens) (UniProt P42680); conditions: Compound concentration 1000.0 nM
[33] = target: Cyclin-G-associated kinase (Homo sapiens) (UniProt O14976); conditions: Compound concentration 1000.0 nM
[34] = target: Serine/threonine-protein kinase Nek7 (Homo sapiens) (UniProt Q8TDX7); conditions: Compound concentration 1000.0 nM
[35] = target: Tyrosine-protein kinase JAK1 (Homo sapiens) (UniProt P23458); conditions: Compound concentration 1000.0 nM
[36] = target: Tyrosine-protein kinase Srms (Homo sapiens) (UniProt Q9H3Y6); conditions: Compound concentration 1000.0 nM
[37] = target: Serine/threonine-protein kinase mTOR (Homo sapiens) (UniProt P42345); conditions: Compound concentration 1000.0 nM
[38] = target: Serine/threonine-protein kinase SIK2 (Homo sapiens) (UniProt Q9H0K1); conditions: Compound concentration 1000.0 nM
[39] = target: Vascular endothelial growth factor receptor 2 (Homo sapiens) (UniProt P35968); conditions: Compound concentration 1000.0 nM
[40] = tested on: Phosphatidylinositol 4,5-bisphosphate 3-kinase catalytic subunit alpha isoform (Homo sapiens), P42336 [Q546K]; conditions: Compound concentration 1000.0 nM
[41] = target: Mitotic checkpoint serine/threonine-protein kinase BUB1 (Homo sapiens) (UniProt O43683); conditions: Compound concentration 1000.0 nM
[42] = tested on: Tyrosine-protein kinase ABL1 (Homo sapiens), P00519 [M351T]; conditions: Compound concentration 1000.0 nM
[43] = target: Serine/threonine-protein kinase D1 (Homo sapiens) (UniProt Q15139); conditions: Compound concentration 1000.0 nM
[44] = target: cGMP-dependent protein kinase 2 (Homo sapiens) (UniProt Q13237); conditions: Compound concentration 1000.0 nM
[45] = target: Serine/threonine-protein kinase RIO2 (Homo sapiens) (UniProt Q9BVS4); conditions: Compound concentration 1000.0 nM

Tyrosine-protein kinase ZAP-70 (Homo sapiens), sequence (P43403 whole entry): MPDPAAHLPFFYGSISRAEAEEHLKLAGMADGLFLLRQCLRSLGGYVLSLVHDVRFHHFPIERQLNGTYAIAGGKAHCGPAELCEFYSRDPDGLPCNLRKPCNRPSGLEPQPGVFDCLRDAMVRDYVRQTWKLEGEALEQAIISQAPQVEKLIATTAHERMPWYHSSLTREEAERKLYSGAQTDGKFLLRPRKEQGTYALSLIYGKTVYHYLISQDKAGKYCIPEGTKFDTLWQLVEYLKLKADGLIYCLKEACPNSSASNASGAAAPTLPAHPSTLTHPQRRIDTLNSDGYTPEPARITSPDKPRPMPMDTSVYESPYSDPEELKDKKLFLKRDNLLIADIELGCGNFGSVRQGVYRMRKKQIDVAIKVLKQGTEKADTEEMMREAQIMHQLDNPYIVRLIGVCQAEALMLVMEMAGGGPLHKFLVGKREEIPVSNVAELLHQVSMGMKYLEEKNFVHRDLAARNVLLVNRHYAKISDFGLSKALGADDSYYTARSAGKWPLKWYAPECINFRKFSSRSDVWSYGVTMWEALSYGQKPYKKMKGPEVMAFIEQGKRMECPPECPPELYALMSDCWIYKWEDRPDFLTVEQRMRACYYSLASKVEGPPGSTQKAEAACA
Aurora kinase B (Homo sapiens), sequence (Q96GD4 whole entry): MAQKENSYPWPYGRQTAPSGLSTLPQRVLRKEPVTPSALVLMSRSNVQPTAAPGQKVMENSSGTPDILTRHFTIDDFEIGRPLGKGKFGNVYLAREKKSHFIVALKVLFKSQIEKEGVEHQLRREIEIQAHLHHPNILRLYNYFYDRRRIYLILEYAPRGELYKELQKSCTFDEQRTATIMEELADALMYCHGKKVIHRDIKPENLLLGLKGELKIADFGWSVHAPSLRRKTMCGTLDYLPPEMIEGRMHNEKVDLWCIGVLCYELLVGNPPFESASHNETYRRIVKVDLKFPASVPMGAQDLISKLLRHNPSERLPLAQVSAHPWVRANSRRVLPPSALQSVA
Mitogen-activated protein kinase kinase kinase 12 (Homo sapiens), sequence (Q12852 whole entry, canonical isoform): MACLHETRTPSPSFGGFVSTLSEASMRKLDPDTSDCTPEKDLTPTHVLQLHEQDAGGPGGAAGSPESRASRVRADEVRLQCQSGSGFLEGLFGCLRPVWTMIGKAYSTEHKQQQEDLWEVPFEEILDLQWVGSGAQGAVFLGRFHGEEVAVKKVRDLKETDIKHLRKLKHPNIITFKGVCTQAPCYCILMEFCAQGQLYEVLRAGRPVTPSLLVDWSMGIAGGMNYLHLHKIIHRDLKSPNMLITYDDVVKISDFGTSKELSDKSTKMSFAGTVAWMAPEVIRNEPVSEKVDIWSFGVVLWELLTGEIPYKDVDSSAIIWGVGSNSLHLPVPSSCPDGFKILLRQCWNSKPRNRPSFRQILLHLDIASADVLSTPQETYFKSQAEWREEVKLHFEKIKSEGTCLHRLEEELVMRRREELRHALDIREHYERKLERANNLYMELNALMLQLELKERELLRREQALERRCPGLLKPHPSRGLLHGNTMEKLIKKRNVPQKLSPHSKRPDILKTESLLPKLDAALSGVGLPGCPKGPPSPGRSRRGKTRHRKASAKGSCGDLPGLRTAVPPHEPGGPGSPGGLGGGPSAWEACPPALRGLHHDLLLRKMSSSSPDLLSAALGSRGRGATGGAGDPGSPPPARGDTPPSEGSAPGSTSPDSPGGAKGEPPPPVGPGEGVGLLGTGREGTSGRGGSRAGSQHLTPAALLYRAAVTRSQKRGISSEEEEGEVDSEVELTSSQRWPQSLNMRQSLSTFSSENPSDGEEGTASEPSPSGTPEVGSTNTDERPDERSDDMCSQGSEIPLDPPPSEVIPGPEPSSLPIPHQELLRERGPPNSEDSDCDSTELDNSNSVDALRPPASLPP
Mast/stem cell growth factor receptor Kit (Homo sapiens), P10721 [L576P], sequence (P10721 whole entry L576P): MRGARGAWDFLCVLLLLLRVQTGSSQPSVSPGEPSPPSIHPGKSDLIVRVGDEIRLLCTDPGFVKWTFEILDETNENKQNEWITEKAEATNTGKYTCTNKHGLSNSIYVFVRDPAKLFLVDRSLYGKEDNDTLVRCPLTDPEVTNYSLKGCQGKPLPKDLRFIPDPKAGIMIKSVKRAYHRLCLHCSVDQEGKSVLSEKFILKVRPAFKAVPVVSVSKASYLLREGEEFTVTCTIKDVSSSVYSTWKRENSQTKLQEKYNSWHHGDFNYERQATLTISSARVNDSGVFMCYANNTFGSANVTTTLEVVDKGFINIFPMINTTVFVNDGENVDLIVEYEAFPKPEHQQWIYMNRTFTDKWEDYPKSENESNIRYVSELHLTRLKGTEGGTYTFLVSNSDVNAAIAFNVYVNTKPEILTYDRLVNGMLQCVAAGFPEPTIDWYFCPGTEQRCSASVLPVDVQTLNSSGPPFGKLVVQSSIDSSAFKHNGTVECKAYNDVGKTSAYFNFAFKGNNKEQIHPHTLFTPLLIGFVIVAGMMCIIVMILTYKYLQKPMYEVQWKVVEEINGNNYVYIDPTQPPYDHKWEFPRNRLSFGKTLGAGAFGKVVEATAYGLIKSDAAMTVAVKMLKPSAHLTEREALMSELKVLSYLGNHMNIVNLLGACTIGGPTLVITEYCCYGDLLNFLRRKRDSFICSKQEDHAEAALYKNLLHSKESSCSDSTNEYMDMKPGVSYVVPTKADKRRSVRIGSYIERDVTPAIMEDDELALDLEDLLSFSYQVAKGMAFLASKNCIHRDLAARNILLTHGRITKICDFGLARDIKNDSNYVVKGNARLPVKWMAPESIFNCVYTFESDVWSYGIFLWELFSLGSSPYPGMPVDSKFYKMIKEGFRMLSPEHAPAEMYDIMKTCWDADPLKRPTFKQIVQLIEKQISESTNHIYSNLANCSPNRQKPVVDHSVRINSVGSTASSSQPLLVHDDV
Dual specificity protein kinase CLK2 (Homo sapiens), sequence (P49760 whole entry, looked up): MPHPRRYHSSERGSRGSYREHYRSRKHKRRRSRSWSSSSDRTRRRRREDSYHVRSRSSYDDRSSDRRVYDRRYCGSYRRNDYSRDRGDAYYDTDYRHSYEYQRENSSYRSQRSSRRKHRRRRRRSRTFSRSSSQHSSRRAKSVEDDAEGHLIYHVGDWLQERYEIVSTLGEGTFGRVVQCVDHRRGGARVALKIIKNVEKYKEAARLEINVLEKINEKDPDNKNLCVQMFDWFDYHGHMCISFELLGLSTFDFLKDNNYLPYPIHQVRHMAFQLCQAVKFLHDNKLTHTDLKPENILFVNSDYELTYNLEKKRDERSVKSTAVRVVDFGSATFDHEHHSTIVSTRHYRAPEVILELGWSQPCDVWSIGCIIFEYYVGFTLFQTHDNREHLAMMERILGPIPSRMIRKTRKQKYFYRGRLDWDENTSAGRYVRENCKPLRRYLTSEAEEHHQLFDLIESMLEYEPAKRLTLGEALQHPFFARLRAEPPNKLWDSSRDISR
Dual specificity protein kinase CLK3 (Homo sapiens), sequence (P49761 whole entry, looked up): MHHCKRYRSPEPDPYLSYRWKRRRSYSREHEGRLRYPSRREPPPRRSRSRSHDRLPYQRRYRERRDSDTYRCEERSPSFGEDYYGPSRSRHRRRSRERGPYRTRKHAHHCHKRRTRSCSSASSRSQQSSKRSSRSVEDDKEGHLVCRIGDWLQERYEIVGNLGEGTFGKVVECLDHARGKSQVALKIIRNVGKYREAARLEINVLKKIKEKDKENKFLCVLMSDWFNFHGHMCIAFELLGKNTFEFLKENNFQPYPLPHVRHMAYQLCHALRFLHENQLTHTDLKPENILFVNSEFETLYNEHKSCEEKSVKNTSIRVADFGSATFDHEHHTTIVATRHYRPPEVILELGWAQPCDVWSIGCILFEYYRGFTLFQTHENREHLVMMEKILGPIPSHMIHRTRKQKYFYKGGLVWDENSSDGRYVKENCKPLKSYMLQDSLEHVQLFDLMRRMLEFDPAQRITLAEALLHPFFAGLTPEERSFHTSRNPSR
cGMP-dependent protein kinase 2 (Homo sapiens), sequence (Q13237 whole entry): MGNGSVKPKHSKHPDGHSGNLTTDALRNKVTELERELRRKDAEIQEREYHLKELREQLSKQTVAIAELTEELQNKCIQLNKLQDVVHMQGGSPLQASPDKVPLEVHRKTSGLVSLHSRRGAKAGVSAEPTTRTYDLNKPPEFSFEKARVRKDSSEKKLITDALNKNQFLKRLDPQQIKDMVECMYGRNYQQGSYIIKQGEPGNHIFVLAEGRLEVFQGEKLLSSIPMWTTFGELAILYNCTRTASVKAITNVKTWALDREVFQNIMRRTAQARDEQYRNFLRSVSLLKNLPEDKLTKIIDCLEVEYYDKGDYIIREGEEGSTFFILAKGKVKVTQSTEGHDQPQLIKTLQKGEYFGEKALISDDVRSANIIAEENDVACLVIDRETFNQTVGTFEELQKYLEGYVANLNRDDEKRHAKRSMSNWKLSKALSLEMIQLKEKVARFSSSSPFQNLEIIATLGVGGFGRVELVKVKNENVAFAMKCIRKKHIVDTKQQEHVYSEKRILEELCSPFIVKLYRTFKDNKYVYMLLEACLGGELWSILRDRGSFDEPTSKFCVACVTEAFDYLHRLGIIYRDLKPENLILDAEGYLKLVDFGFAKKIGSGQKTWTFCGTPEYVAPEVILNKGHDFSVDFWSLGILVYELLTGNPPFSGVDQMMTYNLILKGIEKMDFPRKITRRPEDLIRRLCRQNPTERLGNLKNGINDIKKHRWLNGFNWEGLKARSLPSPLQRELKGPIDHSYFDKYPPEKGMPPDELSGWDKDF
Myosin light chain kinase family member 4 (Homo sapiens), sequence (Q86YV6 whole entry): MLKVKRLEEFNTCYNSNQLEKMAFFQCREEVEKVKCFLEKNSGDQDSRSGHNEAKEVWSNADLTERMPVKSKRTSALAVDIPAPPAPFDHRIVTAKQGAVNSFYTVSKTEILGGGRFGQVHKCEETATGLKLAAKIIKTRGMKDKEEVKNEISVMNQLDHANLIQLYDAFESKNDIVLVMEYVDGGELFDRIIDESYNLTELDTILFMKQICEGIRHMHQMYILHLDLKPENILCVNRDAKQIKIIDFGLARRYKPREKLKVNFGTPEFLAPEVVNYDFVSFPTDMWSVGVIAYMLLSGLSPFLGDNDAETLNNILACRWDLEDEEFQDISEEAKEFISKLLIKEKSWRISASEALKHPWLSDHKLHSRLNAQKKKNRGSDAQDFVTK

Cc1cc(-n2nc(Cc3cc(F)cc(C(F)(F)F)c3)nc2C)ccc1C(N)=O [TP-024]
inactive: residual activity [1] 100% | residual activity [2] 94% | residual activity [3] 100% | residual activity [4] 79% | residual activity [5] 82% | residual activity [6] 96% | residual activity [7] 100% | residual activity [8] 100% | inhibition [9] 5.69% | residual activity [10] 87% | residual activity [11] 100% | residual activity [12] 100% | residual activity [13] 86% | residual activity [14] 52% | residual activity [15] 100% | residual activity [16] 100% | residual activity [17] 82% | residual activity [18] 94% | residual activity [19] 99% | residual activity [20] 100% | residual activity [21] 100% | residual activity [22] 55% | residual activity [23] 100% | residual activity [24] 100% | residual activity [25] 95% | residual activity [26] 95% | residual activity [27] 75% | residual activity [28] 87% | residual activity [29] 91% | residual activity [30] 100% | residual activity [31] 100% | residual activity [32] 100% | residual activity [33] 100% | residual activity [34] 97% | residual activity [35] 100% | residual activity [36] 98% | residual activity [37] 78% | residual activity [38] 100% | residual activity [39] 100% | residual activity [40] 76% | residual activity [41] 100% | residual activity [42] 100% | residual activity [43] 92% | residual activity [44] 86% | residual activity [45] 100%

Cc1nc(Cc2cccc(C(F)(F)F)c2)sc1-c1ccc(C(N)=O)nc1 [TP-024n]
inactive: residual activity [1] 69% | residual activity [2] 85% | residual activity [3] 100% | residual activity [4] 82% | residual activity [5] 76% | residual activity [6] 100% | residual activity [7] 82% | residual activity [8] 100% | inhibition [9] 12.8% | residual activity [10] 100% | residual activity [11] 94% | residual activity [12] 100% | residual activity [13] 83% | residual activity [14] 89% | residual activity [15] 89% | residual activity [16] 100% | residual activity [17] 93% | residual activity [18] 100% | residual activity [19] 86% | residual activity [20] 85% | residual activity [21] 82% | residual activity [22] 100% | residual activity [23] 100% | residual activity [24] 99% | residual activity [25] 84% | residual activity [26] 65% | residual activity [27] 60% | residual activity [28] 94% | residual activity [29] 86% | residual activity [30] 91% | residual activity [31] 100% | residual activity [32] 100% | residual activity [33] 91% | residual activity [34] 98% | residual activity [35] 92% | residual activity [36] 77% | residual activity [37] 87% | residual activity [38] 90% | residual activity [39] 86% | residual activity [40] 86% | residual activity [41] 100% | residual activity [42] 100% | residual activity [43] 93% | residual activity [44] 84% | residual activity [45] 98%
